From PubChem BioAssay AID1963963 (Molecular Pharmacology Branch, DTP, NCI, 2024)

Tested on: 958667-338-R-J2-PDC tumor spheroids viability
Assay: Anticancer human tumor 958667-338-R-J2-PDC patient-derived colon adenocarcinoma cell line growth inhibition [PI3K]
Details: spheroids with HUVEC and MSC; for IC50: curve of first compound; for viability, T/C: stronger effect = lower value
In short: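 Combination activity was assessed by viability in multicellular tumor spheroids carrying HUVEC and MSC components. Agents were tested with PI3K inhibitors from a Cmax-based top dose (or 10 microM) downward in half-log increments.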

[1] = second compound 0.0316 µM, first compound 0.0316 µM
[2] = second compound 0.0316 µM, first compound 0.1 µM
[3] = second compound 0.0316 µM, first compound 0.316 µM
[4] = second compound 0.0316 µM, first compound 1 µM
[5] = second compound 0.0316 µM, first compound 3.16 µM
[6] = second compound 0.0316 µM, first compound 10 µM
[7] = second compound 0.1 µM, first compound 0.0316 µM
[8] = second compound 0.1 µM, first compound 0.1 µM
[9] = second compound 0.1 µM, first compound 0.316 µM
[10] = second compound 0.1 µM, first compound 1 µM
[11] = second compound 0.1 µM, first compound 3.16 µM
[12] = second compound 0.1 µM, first compound 10 µM
[13] = second compound 0.316 µM, first compound 0.0316 µM
[14] = second compound 0.316 µM, first compound 0.1 µM
[15] = second compound 0.316 µM, first compound 0.316 µM
[16] = second compound 0.316 µM, first compound 1 µM
[17] = second compound 0.316 µM, first compound 3.16 µM
[18] = second compound 0.316 µM, first compound 10 µM
[19] = second compound 1 µM, first compound 0.0316 µM
[20] = second compound 1 µM, first compound 0.1 µM
[21] = second compound 1 µM, first compound 0.316 µM
[22] = second compound 1 µM, first compound 1 µM
[23] = second compound 1 µM, first compound 3.16 µM
[24] = second compound 1 µM, first compound 10 µM
[25] = second compound 3.16 µM, first compound 0.0316 µM
[26] = second compound 3.16 µM, first compound 0.1 µM
[27] = second compound 3.16 µM, first compound 0.316 µM
[28] = second compound 3.16 µM, first compound 1 µM
[29] = second compound 3.16 µM, first compound 3.16 µM
[30] = second compound 3.16 µM, first compound 10 µM
[31] = second compound 10 µM, first compound 0.0316 µM
[32] = second compound 10 µM, first compound 0.1 µM
[33] = second compound 10 µM, first compound 0.316 µM
[34] = second compound 10 µM, first compound 1 µM
[35] = second compound 10 µM, first compound 3.16 µM
[36] = second compound 10 µM, first compound 10 µM
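Further: spheroids exposed to compounds for seven days before readout.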

**Q.** With C#Cc1c(F)ccc2cc(O)cc(-c3ncc4c(N5CC6CCC(C5)N6)nc(OCC56CCCN5CC(F)C6)nc4c3F)c12 (centres undefined) + Cc1nc(NC(=O)N2CCCC2C(N)=O)sc1-c1ccnc(C(C)(C)C(F)(F)F)c1 as the compound, how does the IC50 (second compound 0.0316 µM) read?
**A.** > 10 µM

**Q.** And the IC50 (second compound 0.1 µM)?
**A.** > 10 µM

**Q.** And the IC50 (second compound 0.316 µM)?
**A.** > 10 µM

**Q.** What about the IC50 (second compound 1 µM) of the same compound?
**A.** 4.15 µM

**Q.** What about the IC50 (second compound 3.16 µM) of the same compound?
**A.** 1.79 µM

**Q.** And the IC50 (second compound 10 µM)?
**A.** 0.368 µM

**Q.** What about the viability, T/C [1] of the same compound?
**A.** 82.9%

**Q.** And the viability, T/C [2]?
**A.** 83.3%

**Q.** What about the viability, T/C [3] of the same compound?
**A.** 79.5%

**Q.** What about the viability, T/C [4] of the same compound?
**A.** 95.8%

**Q.** And the viability, T/C [5]?
**A.** 67.7%

**Q.** And the viability, T/C [6]?
**A.** 70.6%

**Q.** What about the viability, T/C [7] of the same compound?
**A.** 70.9%

**Q.** And the viability, T/C [8]?
**A.** 79.6%

**Q.** What about the viability, T/C [9] of the same compound?
**A.** 93.5%

**Q.** What about the viability, T/C [10] of the same compound?
**A.** 87.1%

**Q.** What about the viability, T/C [11] of the same compound?
**A.** 76.8%

**Q.** And the viability, T/C [12]?
**A.** 57.3%

**Q.** And the viability, T/C [13]?
**A.** 93.9%

**Q.** And the viability, T/C [14]?
**A.** 109%

**Q.** And the viability, T/C [15]?
**A.** 69%

**Q.** What about the viability, T/C [16] of the same compound?
**A.** 56.2%

**Q.** What about the viability, T/C [17] of the same compound?
**A.** 82.1%

**Q.** And the viability, T/C [18]?
**A.** 52.5%

**Q.** And the viability, T/C [19]?
**A.** 82.8%

**Q.** And the viability, T/C [20]?
**A.** 82.6%

**Q.** What about the viability, T/C [21] of the same compound?
**A.** 67.3%

**Q.** And the viability, T/C [22]?
**A.** 65.7%

**Q.** What about the viability, T/C [23] of the same compound?
**A.** 52%

**Q.** What about the viability, T/C [24] of the same compound?
**A.** 41.4%

**Q.** What about the viability, T/C [25] of the same compound?
**A.** 72.1%

**Q.** And the viability, T/C [26]?
**A.** 59.9%

**Q.** What about the viability, T/C [27] of the same compound?
**A.** 75.2%

**Q.** And the viability, T/C [28]?
**A.** 50.2%

**Q.** What about the viability, T/C [29] of the same compound?
**A.** 46.1%

**Q.** What about the viability, T/C [30] of the same compound?
**A.** 29.4%

**Q.** And the viability, T/C [31]?
**A.** 60.1%

**Q.** What about the viability, T/C [32] of the same compound?
**A.** 47.5%

**Q.** And the viability, T/C [33]?
**A.** 43.9%

**Q.** And the viability, T/C [34]?
**A.** 49.6%

**Q.** And the viability, T/C [35]?
**A.** 34.1%

**Q.** And the viability, T/C [36]?
**A.** 1.14%

**Q.** What does the source list for C=CC(=O)N1CCN(c2nc(=O)n(-c3c(C)ccnc3C(C)C)c3nc(-c4c(O)cccc4F)c(F)cc23)C(C)C1 (centres undefined) + Cc1nc(NC(=O)N2CCCC2C(N)=O)sc1-c1ccnc(C(C)(C)C(F)(F)F)c1?
**A.** IC50 (second compound 0.0316 µM): > 10 µM; IC50 (second compound 0.1 µM): > 10 µM; IC50 (second compound 0.316 µM): > 10 µM; IC50 (second compound 1 µM): > 10 µM; IC50 (second compound 3.16 µM): > 10 µM; IC50 (second compound 10 µM): > 10 µM; viability, T/C [1]: 94.5%; viability, T/C [2]: 100%; viability, T/C [3]: 96.8%; viability, T/C [4]: 114%; viability, T/C [5]: 126%; viability, T/C [6]: 112%; viability, T/C [7]: 94.8%; viability, T/C [8]: 111%; viability, T/C [9]: 96.6%; viability, T/C [10]: 110%; viability, T/C [11]: 129%; viability, T/C [12]: 107%; viability, T/C [13]: 97.9%; viability, T/C [14]: 86.9%; viability, T/C [15]: 94.7%; viability, T/C [16]: 113%; viability, T/C [17]: 94.7%; viability, T/C [18]: 84.7%; viability, T/C [19]: 94%; viability, T/C [20]: 76.7%; viability, T/C [21]: 107%; viability, T/C [22]: 83%; viability, T/C [23]: 88.5%; viability, T/C [24]: 85.2%; viability, T/C [25]: 80.4%; viability, T/C [26]: 73.5%; viability, T/C [27]: 68.6%; viability, T/C [28]: 73.3%; viability, T/C [29]: 93.5%; viability, T/C [30]: 82.2%; viability, T/C [31]: 69.1%; viability, T/C [32]: 60.5%; viability, T/C [33]: 48.8%; viability, T/C [34]: 63.5%; viability, T/C [35]: 65.8%; viability, T/C [36]: 68.9%
